Among the data in patent US6867284B1, “Peptide inhibitors of hepatitis C virus NS3 protease” (Istituto di Ricerche di Biologia Molecolare P. Angeletti …, priority 1998, dated 2005) are IC50 values, retold here.

The first test deals with T1, HCV NS3 protease (Hepatitis C virus genotype 1b, UniProt P26663).
T1 construct: an NS3/4A complex comprising the NS3 protease domain
T1 sequence (P26663 1027-1208, other chains not shown): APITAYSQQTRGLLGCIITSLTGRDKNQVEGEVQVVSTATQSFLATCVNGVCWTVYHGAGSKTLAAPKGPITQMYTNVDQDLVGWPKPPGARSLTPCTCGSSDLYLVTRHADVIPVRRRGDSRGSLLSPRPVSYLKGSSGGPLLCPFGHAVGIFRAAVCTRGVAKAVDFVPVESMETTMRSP
Briefly: Inhibition of NS3 protease (HPLC cleavage assay, NS3/4A complex with Pep4AK, substrate peptide 4AB).
Conditions: not given
It is filed as biochemical. Here is the method: Buffer solutions containing 80 μM Pep4AK were preincubated for 10 minutes with 10-200 nM protease and reactions were started by addition of substrate. Six duplicate data points at different substrate concentrations were used to calculate kinetic parameters. Incubation times were chosen in order to obtain <7% substrate conversion and reactions were stopped by addition of 40 μl 1% TFA. Cleavage of peptide substrates was determined by HPLC using a Merck-Hitachi chromatograph equipped with an autosampler. 80 μl samples were injected on a Lichrospher C18 reversed phase cartridge column (4×74 mm, 5 μm, Merck) and fragments were separated using a 10-40% acetonitrile gradient a 5%/min using a flow rate of 2.5 ml/min. Peak detection was accomplished by monitoring both the absorbance at 220 nm and tyrosine fluorescence (λex=260 nm, λem=305 nm). Cleavage products were quantitated by integration of chromatograms with respect to appropriate standards. Kinetic parameters were calculated from nonlinear least-squares fit of initial rates as a function of substrate concentration with the help of a Kaleidagraph software, assuming Michaelis-Menten kinetics.
Ki values of peptide inhibitors were calculated from substrate titration experiments performed in the presence of increasing amounts of inhibitor. Experimental data sets were simultaneously fitted to eq.1 using a multicurve fit macro with the help of a Sigmaplot software: V=(VmaxS)/(Km(1+[…])+S); (eq.1)
Alternatively, Ki values were derived from IC50 values, calculated using a four-parameter logistic function, according to eq.2: IC50−(1+S/Km)Ki (eq.2)
For `CC(C)C[C@H](NC(=O)CC(CC(=O)O)c1ccccc1)C(=O)NC(CC(F)F)C(=O)C(=O)O` (mixture of isomers) [Compound 7j], inhibition was half-maximal at 26 µM (IC50).

The same test, now with this note: Table 3 capped dipeptide keto acids; read-out: IC50.
`CCCC(CCC)C(=O)N[C@@H](CC(C)C)C(=O)NC(CC(F)F)C(=O)C(=O)O` (mixture of isomers) [Compound 7c]: the 50% inhibitory concentration (IC50) – broadly, the point on the concentration scale where inhibition reaches its midpoint – worked out at 78 µM.

On to `CC(C)C[C@H](NC(=O)CCCC(=O)O)C(=O)NC(CC(F)F)C(=O)C(=O)O` (mixture of isomers) [Compound 7d], for which the IC50 turned out to be 6 µM.

On to `CC(C)C[C@H](NC(=O)CC(C)(C)CC(=O)O)C(=O)NC(CC(F)F)C(=O)C(=O)O` (mixture of isomers) [Compound 7e], for which the IC50 is 4 µM. Consider `CC(C)C[C@H](NC(=O)COCC(=O)O)C(=O)NC(CC(F)F)C(=O)C(=O)O` (mixture of isomers) [Compound 7h], for which the IC50 stood at 32 µM. For the molecule `CC(C)C[C@H](NC(=O)CC(CC(=O)O)c1ccc(Cl)cc1)C(=O)NC(CC(F)F)C(=O)C(=O)O` (mixture of isomers) [Compound 7k], the IC50 is 35 µM.

Regarding `COC(=O)CC1(CC(=O)N[C@@H](CC(C)C)C(=O)NC(CC(F)F)C(=O)C(=O)O)CCCC1` (mixture of isomers) [Compound 7m], the IC50 came out at 85 µM. On to `CC(C)C[C@H](NC(=O)CC1(CC(=O)NS(=O)(=O)c2ccccc2)CCCC1)C(=O)NC(CC(F)F)C(=O)C(=O)O` (mixture of isomers) [Compound 7n], for which the IC50 came to 7 µM. Same read-out and setting: the same measure for `CC(C)C[C@H](NC(=O)C1(CCC(=O)O)CCCC1)C(=O)NC(CC(F)F)C(=O)C(=O)O` (mixture of isomers) [Compound 7o]: 22 µM. Same read-out and setting: the same measure for `CC(C)C[C@H](NC(=O)CC1(CC(=O)O)CCCCC1)C(=O)NC(CC(F)F)C(=O)C(=O)O` (mixture of isomers) [Compound 7q]: 2 µM; for `CC(C)C[C@H](NC(=O)Cc1cccc(CC(=O)O)c1)C(=O)NC(CC(F)F)C(=O)C(=O)O` (mixture of isomers) [Compound 8c]: 7 µM. On the same count and under the same terms, the result for `CC(C)C[C@H](NC(=O)Cc1ccc(CC(=O)O)cc1)C(=O)NC(CC(F)F)C(=O)C(=O)O` (mixture of isomers) [Compound 8d] reads 7 µM. Turning to `CC(C)C[C@H](NC(=O)C(Sc1ccccc1)c1ccccc1)C(=O)NC(CC(F)F)C(=O)C(=O)O` (mixture of isomers) [Compound 8i], the half-inhibitory concentration (IC50) was found to be 28 µM.

Turning to `CC(C)C[C@H](NC(=O)C(Cc1ccccc1)c1ccccc1)C(=O)NC(CC(F)F)C(=O)C(=O)O` (mixture of isomers) [Compound 8j], the IC50 turned out to be 100 µM.

In the case of `COc1ccc(C(Oc2ccccc2)C(=O)N[C@@H](CC(C)C)C(=O)NC(CC(F)F)C(=O)C(=O)O)cc1` (mixture of isomers) [Compound 8k], the half-inhibitory concentration (IC50) came out at 72 µM. `CC(C)C[C@H](NC(=O)[C@H](O)C1CCCCC1)C(=O)NC(CC(F)F)C(=O)C(=O)O` (mixture of isomers) [Compound 8l]: the IC50 was determined as 14 µM.

With `CC(C)C[C@H](NC(=O)C1OC(=O)CC12CCCC2)C(=O)NC(CC(F)F)C(=O)C(=O)O` (mixture of isomers) [Compound 8m], the IC50 stood at 60 µM. Same read-out and setting: the same measure for `CC(C)C[C@H](NC(=O)[C@H](O)c1ccccc1)C(=O)NC(CC(F)F)C(=O)C(=O)O` (mixture of isomers) [Compound 8n]: 6 µM. Take `CC(C)C[C@H](NC(=O)[C@H](O)c1ccc(C(F)(F)F)cc1)C(=O)NC(CC(F)F)C(=O)C(=O)O` (mixture of isomers) [Compound 8o]: the half-maximal inhibitory concentration (IC50) was determined as 56 µM. Turning to `COc1ccc([C@@H](O)C(=O)N[C@@H](CC(C)C)C(=O)NC(CC(F)F)C(=O)C(=O)O)cc1` (mixture of isomers) [Compound 8p], the IC50 was 25 µM. For `CC(C)C[C@H](NC(=O)[C@H](O)c1ccc(Cl)cc1)C(=O)NC(CC(F)F)C(=O)C(=O)O` (mixture of isomers) [Compound 8q], the IC50 was found to be 25 µM.

For the molecule `CC(C)C[C@H](NC(=O)[C@H](O)c1ccccc1Cl)C(=O)NC(CC(F)F)C(=O)C(=O)O` (mixture of isomers) [Compound 8r], the concentration for half-maximal inhibition (IC50) was 82 µM.
